As usually defined, the IC50 is the concentration that inhibits the measured activity by half. A high value points to lower potency.

Test [1] concerns the target purified human, His-tagged PRC2 complex (Homo sapiens, UniProt O75530+Q15910). The experiment in a line: Hot Spot HMT assay: inhibition of PRC2 enzymatic activity (transfer of tritiated methyl from SAM to core histone, filter binding). In kind it is biochemical. The conditions noted are these: Inhibition of PRC2-mediated enzymatic activity; 10 nM PRC2 complex, 0.05 mg/ml core histone H3, 1 uM 3H-SAM, 1 hr at 30°C. In outline: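 Serial compound dilutions starting at 1.0 µM were pre-incubated 20 min at 30°C with 10 nM complex (His-EZH2, Flag-EED, His-SUZ12, His-AEBP2, His-RbAp48) and 0.05 mg/ml core H3. Reaction ran 1 hr at 30°C after adding 1 uM [3H]-SAM; scintillation counting followed filtration.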

The test system of test [2] is PRC2-mediated histone H3 methylation. Nature of the test: Tri-Methyl Histone H3 (Lys 27) Sandwich ELISA in Pfeiffer cells: inhibition of PRC2-mediated histone H3 methylation. In kind it is cell-based, human. The conditions noted are these: Inhibition of EZH2-mediated histone H3 trimethylation, Pfeiffer cells (EZH2 A677G), 96 hours incubation. In outline:
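Pfeiffer DLBCL cells (EZH2 A677G mutant) treated with 3-fold serial dilutions, 1µM to 0.15 nM final, for 96 hours at 37°C. Acid (0.4M HCl) histone extracts, neutralized, assayed by H3K27me3 sandwich ELISA with HRP/TMB read at 450 nm.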

Another test has as its system Karpas 422 cells. Nature of the test: Karpas 422 cell viability, CTG (Cell Titre Glo) assay. In kind it is cell-based, human. The conditions noted are these: Inhibition of proliferation of Karpas 422 cells (EZH2 Y641N), viability measured Day 4, Day 7 or Day 11, time point of the tabulated values not stated. The method, boiled down:
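CellTiter-Glo viability IC50s taken at Day 4, Day 7 and Day 11 of continuous compound exposure (3-fold series, 10µM top, 1.5nM lowest) in RPMI/20% FBS at 37 °C. Y641N-mutant EZH2 lymphoma line seeded at 1000 cells per well; medium and compound replaced on Day 7 for Day 11 read.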

A value given as a limit tells only on which side of the number the result lay.

Sequence of purified human, His-tagged PRC2 complex (Q15910 whole entry): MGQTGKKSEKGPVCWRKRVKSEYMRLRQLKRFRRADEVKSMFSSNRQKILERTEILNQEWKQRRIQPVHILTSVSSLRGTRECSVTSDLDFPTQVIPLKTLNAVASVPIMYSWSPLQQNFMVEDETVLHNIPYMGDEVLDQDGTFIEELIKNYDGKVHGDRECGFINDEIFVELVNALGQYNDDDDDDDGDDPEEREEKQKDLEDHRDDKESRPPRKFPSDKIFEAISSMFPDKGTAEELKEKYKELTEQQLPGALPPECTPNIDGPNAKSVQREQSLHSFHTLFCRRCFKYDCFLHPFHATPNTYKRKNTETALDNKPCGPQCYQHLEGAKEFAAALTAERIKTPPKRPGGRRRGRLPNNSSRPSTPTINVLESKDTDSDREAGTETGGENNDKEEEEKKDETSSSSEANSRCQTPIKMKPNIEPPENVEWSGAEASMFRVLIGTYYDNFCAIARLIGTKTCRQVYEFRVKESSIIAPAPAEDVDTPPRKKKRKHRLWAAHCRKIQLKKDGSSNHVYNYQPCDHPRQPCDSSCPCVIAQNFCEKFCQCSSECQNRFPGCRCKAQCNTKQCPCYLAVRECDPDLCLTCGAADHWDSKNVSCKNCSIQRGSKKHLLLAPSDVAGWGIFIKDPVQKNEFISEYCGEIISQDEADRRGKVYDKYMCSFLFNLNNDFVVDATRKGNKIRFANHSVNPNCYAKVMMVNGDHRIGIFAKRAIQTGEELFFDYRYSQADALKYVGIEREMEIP
Sequence of purified human, His-tagged PRC2 complex (O75530 whole entry): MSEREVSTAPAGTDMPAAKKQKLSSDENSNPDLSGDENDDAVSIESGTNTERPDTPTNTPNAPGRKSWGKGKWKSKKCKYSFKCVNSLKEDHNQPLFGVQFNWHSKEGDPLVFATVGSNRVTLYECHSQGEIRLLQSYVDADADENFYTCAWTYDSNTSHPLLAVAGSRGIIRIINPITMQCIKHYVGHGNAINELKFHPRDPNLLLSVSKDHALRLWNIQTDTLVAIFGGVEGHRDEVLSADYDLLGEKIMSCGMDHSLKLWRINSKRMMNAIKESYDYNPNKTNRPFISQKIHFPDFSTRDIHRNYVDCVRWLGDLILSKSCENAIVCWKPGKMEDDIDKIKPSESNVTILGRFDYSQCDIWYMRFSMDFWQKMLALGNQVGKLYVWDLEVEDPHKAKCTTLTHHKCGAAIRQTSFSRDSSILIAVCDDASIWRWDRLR
Sequence of purified human, His-tagged PRC2 complex (Q15022 whole entry partner): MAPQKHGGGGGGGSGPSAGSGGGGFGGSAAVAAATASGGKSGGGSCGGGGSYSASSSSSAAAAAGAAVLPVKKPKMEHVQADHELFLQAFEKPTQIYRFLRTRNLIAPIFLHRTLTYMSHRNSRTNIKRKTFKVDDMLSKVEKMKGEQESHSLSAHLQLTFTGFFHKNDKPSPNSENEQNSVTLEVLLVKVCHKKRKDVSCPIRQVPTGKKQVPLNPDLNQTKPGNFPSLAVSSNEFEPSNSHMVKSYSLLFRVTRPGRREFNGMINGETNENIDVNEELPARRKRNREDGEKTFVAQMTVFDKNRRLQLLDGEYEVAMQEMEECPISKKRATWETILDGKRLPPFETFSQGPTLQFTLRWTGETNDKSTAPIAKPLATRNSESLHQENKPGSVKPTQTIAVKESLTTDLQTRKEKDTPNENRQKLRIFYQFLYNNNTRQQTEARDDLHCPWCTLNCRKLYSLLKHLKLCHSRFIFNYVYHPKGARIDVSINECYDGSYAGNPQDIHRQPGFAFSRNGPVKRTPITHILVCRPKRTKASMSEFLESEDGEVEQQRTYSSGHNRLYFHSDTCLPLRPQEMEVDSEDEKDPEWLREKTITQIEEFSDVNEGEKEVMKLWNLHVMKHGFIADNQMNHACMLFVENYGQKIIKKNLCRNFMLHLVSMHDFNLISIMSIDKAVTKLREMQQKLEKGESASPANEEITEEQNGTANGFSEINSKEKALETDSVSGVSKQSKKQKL
Sequence of purified human, His-tagged PRC2 complex (Q6ZN18 whole entry partner): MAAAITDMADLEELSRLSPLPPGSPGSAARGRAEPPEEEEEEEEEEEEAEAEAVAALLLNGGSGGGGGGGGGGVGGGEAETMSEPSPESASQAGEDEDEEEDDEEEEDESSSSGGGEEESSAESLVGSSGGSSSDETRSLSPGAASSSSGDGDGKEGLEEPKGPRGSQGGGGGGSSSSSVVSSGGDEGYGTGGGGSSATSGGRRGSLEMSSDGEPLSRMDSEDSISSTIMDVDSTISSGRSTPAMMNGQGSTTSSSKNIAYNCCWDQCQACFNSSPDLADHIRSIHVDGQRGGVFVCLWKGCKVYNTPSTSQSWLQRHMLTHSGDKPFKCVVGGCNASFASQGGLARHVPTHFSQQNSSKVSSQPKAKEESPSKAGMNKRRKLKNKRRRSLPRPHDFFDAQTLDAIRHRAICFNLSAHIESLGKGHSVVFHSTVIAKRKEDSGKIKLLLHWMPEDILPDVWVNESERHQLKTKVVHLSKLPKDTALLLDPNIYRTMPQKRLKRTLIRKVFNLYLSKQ
Sequence of purified human, His-tagged PRC2 complex (Q09028 whole entry partner): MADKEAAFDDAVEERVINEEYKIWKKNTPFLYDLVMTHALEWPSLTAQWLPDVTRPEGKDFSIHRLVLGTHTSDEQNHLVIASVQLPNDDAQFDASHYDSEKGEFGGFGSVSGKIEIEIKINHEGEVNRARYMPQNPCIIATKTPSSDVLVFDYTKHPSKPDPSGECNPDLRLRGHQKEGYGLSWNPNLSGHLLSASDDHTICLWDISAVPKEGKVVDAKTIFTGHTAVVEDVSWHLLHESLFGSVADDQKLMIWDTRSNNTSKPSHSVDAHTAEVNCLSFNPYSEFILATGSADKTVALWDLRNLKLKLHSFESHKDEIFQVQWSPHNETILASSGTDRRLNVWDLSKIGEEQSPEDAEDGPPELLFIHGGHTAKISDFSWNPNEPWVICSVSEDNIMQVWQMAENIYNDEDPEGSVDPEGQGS

Turning to `Cc1ccc(-c2cnc(NCc3c(F)ccc4c3CCO4)n3cc(C#N)nc23)c(C)n1` [Example 67, 8-(2,6-dimethylpyridin-3-yl)-5-(((5-fluoro-2,3-dihydrobenzofuran-4-yl)methyl)amino)imidazo[1,2-c]pyrimidine-2-carbonitrile], the IC50 was less than 0.1 µM in test [1], not above 0.1 µM in test [2] (Homo sapiens) and not above 0.25 µM in the test with Karpas 422 cells (Homo sapiens).

As for `COCCOc1ccc(-c2cnc(NCc3c(F)ccc4c3CCO4)n3cc(C#N)nc23)cn1` [Example 158, 5-(((5-fluoro-2,3-dihydrobenzofuran-4-yl)methyl)amino)-8-(6-(2-methoxyethoxy)pyridin-3-yl)imidazo[1,2-c]pyrimidine-2-carbonitrile], the IC50 in test [1] lay within 0.1 to 0.5 µM; in test [2] (Homo sapiens) it was 0.1 to 0.5 µM; in the test on Karpas 422 cells (Homo sapiens), 0.25 to 0.5 µM.

As to `Cn1nc(C#N)cc1-c1cnc(NCc2c(F)ccc3c2CCO3)n2cc(C#N)nc12` [Example 212, 8-(3-cyano-1-methyl-1H-pyrazol-5-yl)-5-(((5-fluoro-2,3-dihydrobenzofuran-4-yl)methyl)amino)imidazo[1,2-c]pyrimidine-2-carbonitrile], the IC50 in test [1] was less than 0.1 µM; in test [2] (Homo sapiens), not above 0.1 µM; in the test with Karpas 422 cells (Homo sapiens) it was not above 0.25 µM.

Regarding “5-(((5-fluoro-2,3-dihydrobenzofuran-4-yl)methyl)amino)-8-(2-methyl-6-morpholinopyridin-3-yl)imidazo[1,2-c]pyrimidine-2-carbonitrile [Example 56]”, the IC50 was less than 0.1 µM in test [1], 0.1 to 0.5 µM in test [2] and not above 0.25 µM in the test on Karpas 422 cells.

In the case of `CN(C)CCc1cccc(-c2cnc(NCc3c(F)ccc4c3CCO4)n3cc(C#N)nc23)c1` [Example 217, 8-(3-(2-(dimethylamino)ethyl)phenyl)-5-(((5-fluoro-2,3-dihydrobenzofuran-4-yl)methyl)amino)imidazo[1,2-c]pyrimidine-2-carbonitrile], the values for the IC50 (in test [1]; in test [2] (Homo sapiens); in the test on Karpas 422 cells (Homo sapiens)) were less than 0.1 µM, 0.1 to 0.5 µM and not above 0.25 µM, respectively.

Take “5-(((5-fluoro-2,3-dihydrobenzofuran-4-yl)methyl)amino)-8-(2-methylpyridin-4-yl)imidazo[1,2-c]pyrimidine-2-carbonitrile [Example 178]”: the figures for the IC50 (in test [1]; in test [2]; in the test with Karpas 422 cells) were 0.1 to 0.5 µM, 0.1 to 0.5 µM and not above 0.25 µM, respectively.

For the compound `CN1CCN(C(=O)c2cc(-c3cnc(NCc4c(F)ccc5c4CCO5)n4cc(C#N)nc34)n(C)n2)CC1` [Example 229, 5-(((5-fluoro-2,3-dihydrobenzofuran-4-yl)methyl)amino)-8-(1-methyl-3-(4-methylpiperazine-1-carbonyl)-1H-pyrazol-5-yl)imidazo[1,2-c]pyrimidine-2-carbonitrile], the 50% inhibitory concentration (IC50) in test [1] is less than 0.1 µM; in test [2] (Homo sapiens), not above 0.1 µM; in the test with Karpas 422 cells (Homo sapiens), not above 0.25 µM.

On to `N#Cc1cn2c(NCc3c(F)ccc4c3CCO4)ncc(-c3ccc4c(c3)CCNC4)c2n1` [Example 203, 5-(((5-fluoro-2,3-dihydrobenzofuran-4-yl)methyl)amino)-8-(1,2,3,4-tetrahydroisoquinolin-6-yl)imidazo[1,2-c]pyrimidine-2-carbonitrile], for which the IC50 in test [1] was 0.1 to 0.5 µM; in test [2] (Homo sapiens), 0.1 to 0.5 µM; with Karpas 422 cells (Homo sapiens), 0.25 to 0.5 µM.

On to `N#Cc1cn2c(NCc3c(F)ccc4c3CCO4)ncc(-c3ccc4c(c3)CNC4)c2n1` [Example 205, 5-(((5-fluoro-2,3-dihydrobenzofuran-4-yl)methyl)amino)-8-(isoindolin-5-yl)imidazo[1,2-c]pyrimidine-2-carbonitrile], for which the IC50 was 0.1 to 0.5 µM in test [1], not above 0.1 µM in test [2] (Homo sapiens) and not above 0.25 µM in the test on Karpas 422 cells (Homo sapiens).

In the case of `N#Cc1cn2c(NCc3c(F)ccc4c3CCO4)ncc(-c3ccncn3)c2n1` [Example 57, 5-(((5-fluoro-2,3-dihydrobenzofuran-4-yl)methyl)amino)-8-(pyrimidin-4-yl)imidazo[1,2-c]pyrimidine-2-carbonitrile], the IC50 in test [1] was less than 0.1 µM; in test [2] (Homo sapiens) it was 0.1 to 0.5 µM; in the test on Karpas 422 cells (Homo sapiens), not above 0.25 µM.

These data come from EP4043466B1, “PRC2 INHIBITORS” (Mirati Therapeutics, Inc., priority 2018, dated 2019).
